Assay results from patent publication US7674801B2 (AstraZeneca AB, priority 2006, dated 2010).

Molecular target: S. aureus (SAU) GyrB ATPase (Staphylococcus aureus, UniProt P0A0K8)
Assay: S. aureus GyrB ATPase inhibition, ammonium molybdate/malachite green phosphate detection assay
Format: biochemical
Conditions: for inhibition at 12.5 µM: read-out: S. aureus (SAU) GyrB ATPase % Inhibition, compound concentration 12.5 μM; for inhibition at 5 µM: compound concentration 5 μM (values marked *); for IC50: 10 compound concentrations, 500 μM ATP
Protocol: Compounds were tested for inhibition of GyrB ATPase activity using an ammonium molybdate/malachite green-based phosphate detection assay (Lanzetta, P. A., L. J. Alvarez, P. S. Reinach, and O. A. Candia, 1979, 100: 95-97). Assays were performed in multiwell plates in 100 μl reactions containing: 50 mM Hepes buffer pH 7.5, 75 mM ammonium acetate, 8.0 mM magnesium chloride, 1.0 mM ethylenediaminetetraacetic acid, 5% glycerol, 2 mM 1,4-Dithio-DL-threitol, 400 nM bovine serum albumin, 5 μg/ml sheared salmon sperm DNA, 1.25 nM E. coli GyrA, 1.25 nM S. aureus GyrB, 500 μM ATP, and compound in dimethylsulfoxide. Reactions were quenched with 150 μl of ammonium molybdate/malachite green detection reagent containing 1.2 mM malachite green hydrochloride, 8.5 mM ammonium molybdate tetrahydrate, and 1 M hydrochloric acid. Plates were read in an absorbance plate reader at 650 nm and percent inhibition values were calculated using dimethylsulfoxide (2%)-containing reactions as 0% inhibition and novobiocin-containing (2 μM) reactions as 100% inhibition controls. Compound potency was based on IC50 measurements determined from reactions performed in the presence of 10 different compound concentrations.

Sequence of S. aureus (SAU) GyrB ATPase (P0A0K8 whole entry): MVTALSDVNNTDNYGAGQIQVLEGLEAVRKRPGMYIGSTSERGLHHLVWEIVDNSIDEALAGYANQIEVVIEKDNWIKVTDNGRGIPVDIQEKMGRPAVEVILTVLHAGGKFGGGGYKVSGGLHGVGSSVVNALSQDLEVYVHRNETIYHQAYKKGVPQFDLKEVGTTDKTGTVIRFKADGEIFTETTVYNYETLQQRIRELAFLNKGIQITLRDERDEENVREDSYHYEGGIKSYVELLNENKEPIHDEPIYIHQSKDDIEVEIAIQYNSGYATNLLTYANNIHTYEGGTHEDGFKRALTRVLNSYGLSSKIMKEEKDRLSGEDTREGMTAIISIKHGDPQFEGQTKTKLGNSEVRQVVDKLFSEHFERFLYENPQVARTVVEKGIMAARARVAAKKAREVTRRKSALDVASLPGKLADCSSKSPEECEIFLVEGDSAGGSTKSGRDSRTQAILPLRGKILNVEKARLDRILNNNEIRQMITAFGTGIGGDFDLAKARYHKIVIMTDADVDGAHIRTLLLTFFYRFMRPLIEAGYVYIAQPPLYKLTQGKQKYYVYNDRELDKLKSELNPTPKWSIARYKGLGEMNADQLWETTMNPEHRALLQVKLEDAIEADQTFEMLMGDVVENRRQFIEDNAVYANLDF
Sequence of S. aureus (SAU) GyrB ATPase (P0AES4 whole entry, further chain): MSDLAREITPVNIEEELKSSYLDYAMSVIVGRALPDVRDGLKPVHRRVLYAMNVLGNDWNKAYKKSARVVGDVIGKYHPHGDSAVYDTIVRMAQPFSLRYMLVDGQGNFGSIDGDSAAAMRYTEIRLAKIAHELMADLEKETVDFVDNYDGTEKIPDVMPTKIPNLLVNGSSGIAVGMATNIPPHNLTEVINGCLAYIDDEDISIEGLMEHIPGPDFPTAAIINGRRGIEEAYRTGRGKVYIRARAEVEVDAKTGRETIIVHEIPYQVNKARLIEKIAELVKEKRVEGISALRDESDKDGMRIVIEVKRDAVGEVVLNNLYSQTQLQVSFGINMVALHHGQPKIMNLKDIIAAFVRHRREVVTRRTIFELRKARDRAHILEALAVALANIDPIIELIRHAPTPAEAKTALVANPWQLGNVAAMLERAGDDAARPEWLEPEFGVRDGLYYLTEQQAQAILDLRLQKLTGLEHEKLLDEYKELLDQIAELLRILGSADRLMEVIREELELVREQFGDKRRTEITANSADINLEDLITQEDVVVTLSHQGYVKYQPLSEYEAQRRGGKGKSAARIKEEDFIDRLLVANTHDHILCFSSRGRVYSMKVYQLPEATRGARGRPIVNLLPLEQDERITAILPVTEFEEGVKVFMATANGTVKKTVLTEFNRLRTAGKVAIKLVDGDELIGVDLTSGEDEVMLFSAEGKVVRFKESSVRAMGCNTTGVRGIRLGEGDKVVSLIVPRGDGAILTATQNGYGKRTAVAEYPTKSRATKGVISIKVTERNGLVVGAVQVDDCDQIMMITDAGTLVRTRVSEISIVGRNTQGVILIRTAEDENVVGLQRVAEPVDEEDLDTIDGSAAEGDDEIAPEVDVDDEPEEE

| Structure (SMILES) | inhibition at 12.5 µM [%] | inhibition at 5 µM [%] | IC50 [nM] |
| --- | --- | --- | --- |
| CCNC(=O)Nc1ccc(-c2ncc(C(=O)OC)s2)cn1 [Example 1, Methyl 2-(6-{[(ethylamino)carbonyl]amino}pyridin-3-yl)-1,3-thiazole-5-carboxylate] | 3.02 | – | – |
| CCNC(=O)Nc1ccc(-c2nc(C(=O)OCC)cs2)cn1 [Example 2, Ethyl 2-(6-{[(ethylamino)carbonyl]amino}pyridin-3-yl)-1,3-thiazole-4-carboxylate] | 99.1 | – | – |
| CCNC(=O)Nc1ccc(-c2cncc(C(=O)OCC)c2)cn1 [Example 3, Ethyl 6′-{[(ethylamino)carbonyl]amino}-3,3′-bipyridine-5-carboxylate] | 55 | – | – |
| CCNC(=O)Nc1ccc(-c2nc3cccc(C(=O)OCC)c3s2)cn1 [Example 4, Ethyl 2-(6-{[(ethylamino)carbonyl]amino}pyridin-3-yl)-1,3-benzothiazole-7-carboxylate] | 84 | – | – |
| CCNC(=O)Nc1ccc(-c2ccc(C(=O)OC)cn2)cn1 [Example 5, Methyl 6′-{[(ethylamino)carbonyl]amino}-2,3′-bipyridine-5-carboxylate] | 63.7 | – | – |
| CCNC(=O)Nc1ccc(-c2cccc(C(=O)OC)c2)cn1 [Example 6, Methyl 3-(6-{[(ethylamino)carbonyl]amino}pyridin-3-yl)benzoate] | 99.7 | – | – |
| CCNC(=O)Nc1ccc(-c2ccc(C(=O)OC)cc2)cn1 [Example 7, Methyl 4-(6-{[(ethylamino)carbonyl]amino}pyridin-3-yl)benzoate] | 97.4 | – | – |
| CCNC(=O)Nc1ccc(-c2nc(C(=O)NC)c(C(=O)OC(C)C)s2)cn1 [Example 8, Isopropyl 2-(6-{[(ethylamino)carbonyl]amino}pyridin-3-yl)-4-[(methylamino)carbonyl]-1,3-thiazole-5-carboxylate] | 81.5 | – | – |
| CCNC(=O)Nc1ccc(-c2nc(C(=O)NC3CC3)c(C(=O)OCC)s2)cn1 [Example 9, Ethyl 4-[(cyclopropylamino)carbonyl]-2-(6-{[(ethylamino)carbonyl]amino}pyridin-3-yl)-1,3-thiazole-5-carboxylate] | 93.5 | – | – |
| CCCCNC(=O)c1nc(-c2ccc(NC(=O)NCC)nc2)sc1C(=O)OCC [Example 10, Ethyl 4-[(butylamino)carbonyl]-2-(6-{[(ethylamino)carbonyl]amino}pyridin-3-yl)-1,3-thiazole-5-carboxylate] | 92.6 | – | – |
| CCNC(=O)Nc1ccc(-c2ccc3nc(C(=O)OC)cn3c2)cn1 [Example 12, Methyl 6-(6-{[(ethylamino)carbonyl]amino}pyridin-3-yl)imidazo[1,2-a]pyridine-2-carboxylate] | 92.6 | – | – |
| CCNC(=O)Nc1ncc(-c2cccc(C(=O)OC)c2)cn1 [Example 13, Methyl 3-(2-{[(ethylamino)carbonyl]amino}pyrimidin-5-yl)benzoate] | 99 | – | – |
| CCNC(=O)Nc1ncc(-c2ncc(C(=O)OC)s2)cn1 [Example 14, Methyl 2-(2-{[(ethylamino)carbonyl]amino}pyrimidin-5-yl)-1,3-thiazole-5-carboxylate] | – | 99.5 | – |
| CCNC(=O)Nc1cccc(-c2cccc(C(=O)OCC)c2)n1 [Example 15, Ethyl 3-(6-{[(ethylamino)carbonyl]amino}pyridin-2-yl)benzoate] | 97.9 | – | – |
| CCNC(=O)Nc1cccc(-c2ccc(C(=O)OCC)cc2)n1 [Example 16, Ethyl 4-(6-{[(ethylamino)carbonyl]amino}pyridin-2-yl)benzoate] | – | 1.28 | – |
| CCNC(=O)Nc1ccc(-c2ncc(C(=O)O)s2)cn1 [Example 17, 2-(6-{[(ethylamino)carbonyl]amino}pyridin-3-yl)-1,3-thiazole-5-carboxylic acid] | 99.1 | – | 266 |
| CCNC(=O)Nc1ccc(-c2nc(C(=O)O)cs2)cn1 [Example 18, 2-(6-{[(Ethylamino)carbonyl]amino}pyridin-3-yl)-1,3-thiazole-4-carboxylic acid] | 101 | – | – |
| CCNC(=O)Nc1ccc(-c2cncc(C(=O)O)c2)cn1 [Example 19, 6′-{[(Ethylamino)carbonyl]amino}-3,3′-bipyridine-5-carboxylic acid] | 95.1 | – | 846 |
| CCNC(=O)Nc1ccc(-c2nc3cccc(C(=O)O)c3s2)cn1 [Example 20, 2-(6-{[(Ethylamino)carbonyl]amino}pyridin-3-yl)-1,3-benzothiazole-7-carboxylic acid] | 98.4 | – | – |
| CCNC(=O)Nc1ccc(-c2ccc(C(=O)O)cn2)cn1 [Example 21, 6′-{[(Ethylamino)carbonyl]amino}-2,3′-bipyridine-5-carboxylic acid] | 77.1 | – | – |

| Structure (SMILES) | inhibition at 12.5 µM [%] | inhibition at 5 µM [%] | IC50 [nM] |
| --- | --- | --- | --- |
| CCNC(=O)Nc1ccc(-c2cccc(C(=O)O)c2)cn1 [Example 22, 3-(6-{[(Ethylamino)carbonyl]amino}pyridin-3-yl)benzoic acid] | 99.7 | – | – |
| CCNC(=O)Nc1ccc(-c2ccc(C(=O)O)cc2)cn1 [Example 23, 4-(6-{[(Ethylamino)carbonyl]amino}pyridin-3-yl)benzoic acid] | 92.5 | – | – |
| CCNC(=O)Nc1ccc(-c2nc(C(=O)NC)c(C(=O)O)s2)cn1 [Example 24, 2-(6-{[(Ethylamino)carbonyl]amino}pyridin-3-yl)-4-[(methylamino)carbonyl]-1,3-thiazole-5-carboxylic acid] | 99.1 | – | – |
| CCNC(=O)Nc1ccc(-c2nc(C(=O)NC3CC3)c(C(=O)O)s2)cn1 [Example 25, 4-[(Cyclopropylamino)carbonyl]-2-(6-{[(ethylamino)carbonyl]amino}pyridin-3-yl)-1,3-thiazole-5-carboxylic acid] | 99.5 | – | – |
| CCNC(=O)Nc1ccc(-c2nc(C(C)=O)c(C(=O)O)s2)cn1 [Example 27, 4-Acetyl-2-(6-{[(ethylamino)carbonyl]amino}pyridin-3-yl)-1,3-thiazole-5-carboxylic acid] | 99.1 | – | – |
| CCNC(=O)Nc1ccc(-c2ccc3nc(C(=O)O)cn3c2)cn1 [Example 28, 6-(6-{[(Ethylamino)carbonyl]amino}pyridin-3-yl)imidazo[1,2-a]pyridine-2-carboxylic acid] | 96.8 | – | – |
| CCNC(=O)Nc1ncc(-c2cccc(C(=O)O)c2)cn1 [Example 29, 3-(2-{[(Ethylamino)carbonyl]amino}pyrimidin-5-yl)benzoic acid] | 13.6 | – | – |
| CCNC(=O)Nc1ncc(-c2ncc(C(=O)O)s2)cn1 [Example 30, 2-(2-{[(Ethylamino)carbonyl]amino}pyrimidin-5-yl)-1,3-thiazole-5-carboxylic acid] | 62.9 | – | – |
| CCNC(=O)Nc1cccc(-c2cccc(C(=O)O)c2)n1 [Example 31, 3-(6-{[(Ethylamino)carbonyl]amino}pyridin-2-yl)benzoic acid] | 100 | – | – |
| CCNC(=O)Nc1cccc(-c2ccc(C(=O)O)cc2)n1 [Example 32, 4-(6-{[(Ethylamino)carbonyl]amino}pyridin-2-yl)benzoic acid] | 2.66 | – | – |
| CCNC(=O)Nc1nc(-c2ccc(C(=O)O)cc2)cs1 [Example 33, 4-(2-{[(Ethylamino)carbonyl]amino}-1,3-thiazol-4-yl)benzoic acid] | 38.2 | – | – |
| CCNC(=O)Nc1ccc(-c2ncc(C(=O)NOC)s2)cn1 [Example 34, 2-(6-{[(Ethylamino)carbonyl]amino}pyridin-3-yl)-N-methoxy-1,3-thiazole-5-carboxamide] | – | 42.5 | – |
| CCNC(=O)Nc1ccc(-c2nc(C(=O)NC3CC3)c(C(=O)NOC)s2)cn1 [Example 35, N^4-Cyclopropyl-2-(6-{[(ethylamino)carbonyl]amino}pyridin-3-yl)-N^5-methoxy-1,3-thiazole-4,5-dicarboxamide] | – | 96.7 | – |
| CCCCNC(=O)c1nc(-c2ccc(NC(=O)NCC)nc2)sc1C(=O)NOC [Example 36, N^4-Butyl-2-(6-{[(ethylamino)carbonyl]amino}pyridin-3-yl)-N^5-methoxy-1,3-thiazole-4,5-dicarboxamide] | 4.84 | – | 16.8 |
| CCNC(=O)Nc1ccc(-c2ncc(C(N)=O)s2)cn1 [Example 37, 2-(6-{[(Ethylamino)carbonyl]amino}pyridin-3-yl)-1,3-thiazole-5-carboxamide] | 98.9 | – | – |
| CCNC(=O)Nc1ccc(-c2nc(C(=O)NC3CC3)c(C(N)=O)s2)cn1 [Example 38, N^4-Cyclopropyl-2-(6-{[(ethylamino)carbonyl]amino}pyridin-3-yl)-1,3-thiazole-4,5-dicarboxamide] | 91.8 | – | – |
| CCCCNC(=O)c1nc(-c2ccc(NC(=O)NCC)nc2)sc1C(N)=O [Example 39, N^4-Butyl-2-(6-{[(ethylamino)carbonyl]amino}pyridin-3-yl)-1,3-thiazole-4,5-dicarboxamide] | 99 | – | 14 |
| CCNC(=O)Nc1ccc(-c2nc3cccc(C(N)=O)c3s2)cn1 [Example 40, 2-(6-{[(Ethylamino)carbonyl]amino}pyridin-3-yl)-1,3-benzothiazole-7-carboxamide] | 83.7 | – | – |
| CCNC(=O)Nc1nc(-c2ccc(C(=O)OC)cc2)cs1 [Example 41, Methyl 4-(2-{[(ethylamino)carbonyl]amino}-1,3-thiazol-4-yl)benzoate] | 26.9 | – | – |
